Measurements taken from US11001586B2, “Alkyl pyrrolopyrimidine analogs and methods of making and using same” (The University of North Carolina at Chapel Hill, priority 2016, dated 2021).

Columns and labels:
Mer tyrosine kinase = Mer tyrosine kinase (Homo sapiens (Human), UniProt Q12866); experiment: Evaluation of activity against Mer tyrosine kinase; type: biochemical
Tyro3 tyrosine kinase = Tyro3 tyrosine kinase (Homo sapiens (Human), UniProt Q06418); experiment: Evaluation of activity against Tyro3 tyrosine kinase; type: biochemical
Tyro3 tyrosine kinase, sequence (Q06418 41-890): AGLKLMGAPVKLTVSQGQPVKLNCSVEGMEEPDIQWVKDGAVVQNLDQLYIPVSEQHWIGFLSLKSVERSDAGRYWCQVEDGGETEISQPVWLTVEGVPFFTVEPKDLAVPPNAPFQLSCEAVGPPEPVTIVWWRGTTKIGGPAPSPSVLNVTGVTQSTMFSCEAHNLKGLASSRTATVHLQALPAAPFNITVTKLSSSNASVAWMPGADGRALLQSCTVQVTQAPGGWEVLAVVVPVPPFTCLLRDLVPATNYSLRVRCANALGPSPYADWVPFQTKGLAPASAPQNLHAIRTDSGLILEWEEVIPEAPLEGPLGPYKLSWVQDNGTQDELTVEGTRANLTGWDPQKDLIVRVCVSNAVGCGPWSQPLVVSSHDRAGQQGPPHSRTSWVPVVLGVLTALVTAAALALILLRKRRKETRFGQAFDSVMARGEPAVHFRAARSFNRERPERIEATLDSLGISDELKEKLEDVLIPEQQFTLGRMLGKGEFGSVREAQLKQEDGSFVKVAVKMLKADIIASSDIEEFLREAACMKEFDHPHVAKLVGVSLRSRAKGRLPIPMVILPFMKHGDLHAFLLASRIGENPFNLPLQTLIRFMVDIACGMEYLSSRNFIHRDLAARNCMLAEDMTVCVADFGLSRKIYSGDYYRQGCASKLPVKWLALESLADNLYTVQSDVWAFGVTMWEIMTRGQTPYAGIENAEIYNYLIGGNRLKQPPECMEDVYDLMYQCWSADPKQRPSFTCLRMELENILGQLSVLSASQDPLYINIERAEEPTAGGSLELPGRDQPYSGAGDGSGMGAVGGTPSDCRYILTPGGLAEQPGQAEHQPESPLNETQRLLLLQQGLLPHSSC

Mer tyrosine kinase, sequence (Q12866 21-999): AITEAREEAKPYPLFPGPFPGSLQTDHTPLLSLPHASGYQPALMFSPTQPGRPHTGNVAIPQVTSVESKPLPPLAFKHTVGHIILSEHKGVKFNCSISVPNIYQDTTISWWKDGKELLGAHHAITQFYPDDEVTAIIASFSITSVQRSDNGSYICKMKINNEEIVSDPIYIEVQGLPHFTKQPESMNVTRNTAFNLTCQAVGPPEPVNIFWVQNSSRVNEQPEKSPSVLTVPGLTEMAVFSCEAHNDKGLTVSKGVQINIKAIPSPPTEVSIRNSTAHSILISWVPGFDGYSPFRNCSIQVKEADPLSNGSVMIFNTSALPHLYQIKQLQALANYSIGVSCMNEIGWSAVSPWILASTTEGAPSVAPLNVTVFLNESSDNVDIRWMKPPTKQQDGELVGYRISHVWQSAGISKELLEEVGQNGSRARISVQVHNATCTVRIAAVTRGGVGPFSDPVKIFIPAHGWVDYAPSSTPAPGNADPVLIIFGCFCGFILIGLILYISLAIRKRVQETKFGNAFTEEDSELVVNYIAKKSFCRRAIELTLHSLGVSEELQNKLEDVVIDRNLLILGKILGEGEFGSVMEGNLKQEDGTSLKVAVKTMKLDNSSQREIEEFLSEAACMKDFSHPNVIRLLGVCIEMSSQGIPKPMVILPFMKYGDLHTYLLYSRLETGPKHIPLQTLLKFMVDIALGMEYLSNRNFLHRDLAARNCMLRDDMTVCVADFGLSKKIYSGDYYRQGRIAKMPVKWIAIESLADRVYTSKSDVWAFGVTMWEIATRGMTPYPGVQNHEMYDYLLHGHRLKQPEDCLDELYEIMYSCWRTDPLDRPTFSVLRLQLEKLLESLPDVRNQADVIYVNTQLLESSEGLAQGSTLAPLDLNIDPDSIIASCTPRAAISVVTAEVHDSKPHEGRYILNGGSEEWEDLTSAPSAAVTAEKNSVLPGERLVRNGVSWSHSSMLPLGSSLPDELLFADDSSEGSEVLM

Row | SMILES | IC50 (Mer tyrosine kinase) [nM] | IC50 (Tyro3 tyrosine kinase) [nM]
1 | CCC[C@H](C)Nc1ncc2c(C3CCN(C(=O)c4cc(C)nc(C)c4)CC3)cn([C@H]3CC[C@H](N)CC3)c2n1 [compound 95, (4-(7-((1R,4S)-4-aminocyclohexyl)-2-(((S)-pentan-2-yl)amino)-7H-pyrrolo[2,3-d]pyrimidin-5-yl)piperidin-1-yl)(2,6-dimethylpyridin-4-yl)methanone] | < 10 | 10 to 100
2 | CCC[C@H](C)Nc1ncc2c(C3CCN(C)C3)cn([C@H]3CC[C@H](O)CC3)c2n1 (stereo partly drawn) [compound 99, (1S,4R)-4-(5-(1-methylpyrrolidin-3-yl)-2-(((S)-pentan-2-yl)amino)-7H-pyrrolo[2,3-d]pyrimidin-7-yl)cyclohexan-1-ol] | < 10 | 100 to 1000

The remaining lines, values ahead:

Row | IC50 (Mer tyrosine kinase) [nM] | IC50 (Tyro3 tyrosine kinase) [nM] | SMILES
3 | < 10 | 1000 to 30000 | Cc1cc(C(=O)N2CCC(c3cn([C@H]4CC[C@H](O)CC4)c4nc(NCCCCO)ncc34)CC2)cc(C)n1 [compound 100, (2,6-dimethylpyridin-4-yl)(4-(2-((4-hydroxybutyl)amino)-7-((1r,4r)-4-hydroxycyclohexyl)-7H-pyrrolo[2,3-d]pyrimidin-5-yl)piperidin-1-yl)methanone]
4 | < 10 | 1000 to 30000 | Cc1cc(C(=O)N2CCC(c3cn([C@H]4CC[C@H](O)CC4)c4nc(NCCCC(F)(F)F)ncc34)CC2)cc(C)n1 [compound 101, (2,6-dimethylpyridin-4-yl)(4-(7-((1r,4r)-4-hydroxycyclohexyl)-2-((4,4,4-trifluorobutyl)amino)-7H-pyrrolo[2,3-d]pyrimidin-5-yl)piperidin-1-yl)methanone]
5 | < 10 | 100 to 1000 | CCC[C@H](C)Nc1ncc2c(C3CCN(C(=O)c4cc(C)nc(C)c4)CC3)cn(C[C@H]3CC[C@H](N)CC3)c2n1 [compound 102, (4-(7-(((1R,4S)-4-aminocyclohexyl)methyl)-2-(((S)-pentan-2-yl)amino)-7H-pyrrolo[2,3-d]pyrimidin-5-yl)piperidin-1-yl)(2,6-dimethylpyridin-4-yl)methanone]
